Reference: ChEMBL document CHEMBL1121712, “Permethyl analogue of the pyrrolic antibiotic distamycin A” (J Med Chem, 1981)

Legend:
[1] = species: Mus musculus; assay: Mean survival time at a dose of 25 ug/mL in mouse fibroblasts and Maloney sarcoma transplanted 3T3 fibroblasts by using Rane assay; Nontoxic; assay type: functional, organism-based
[2] = tested on: Plasmodium berghei; assay: Mean survival time in blood schizonticidal screen against Plasmodium berghei at 640 mg/kg by Rane assay; Non-toxic; assay type: functional, organism-based; design: dose 640 mg/kg
[3] = Dissociation constant was determined; assay type: physicochemical

## Cc1c(NC=O)c(C)n(C)c1C(=O)NCCC(=N)N
[1]
  Mean survival time: Non-toxic
[2]
  Mean survival time: Non-toxic

## Cc1c(NC=O)c(C)n(C)c1C(=O)Nc1c(C)c(C(=O)NCCC(=N)N)n(C)c1C
[1]
  Mean survival time: Non-toxic
[2]
  Mean survival time: Non-toxic

## Cc1c([N+](=O)[O-])c(C)n(C)c1C(=O)O
[3]
  pKa: 5.5
